How the values were obtained:
[1] = molecular target: T1, PAR2 (HT-29 cells, trypsin activation) (Homo sapiens, UniProt P55085); assay: Ca FLIPR TETRA assay, ANTAGONIST mode, stimulation with 3.1 U/mL trypsin; assay type: cell-based; conditions: for Trypsin % @ 50 μM: reported prior-art compounds
T1 construct: host or cells: HT-29 cells
T1 sequence (P55085 26-397): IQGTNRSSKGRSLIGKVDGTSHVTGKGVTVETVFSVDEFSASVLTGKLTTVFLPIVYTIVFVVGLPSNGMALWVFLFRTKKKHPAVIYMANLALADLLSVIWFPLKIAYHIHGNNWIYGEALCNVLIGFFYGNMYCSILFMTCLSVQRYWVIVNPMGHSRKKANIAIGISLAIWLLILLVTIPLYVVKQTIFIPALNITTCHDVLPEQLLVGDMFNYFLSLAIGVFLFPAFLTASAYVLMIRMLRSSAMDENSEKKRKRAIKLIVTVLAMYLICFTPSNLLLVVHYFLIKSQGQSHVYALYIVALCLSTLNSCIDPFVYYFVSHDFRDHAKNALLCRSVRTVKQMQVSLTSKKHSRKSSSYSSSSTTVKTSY
Protocol: (§1) Example 60: Protocol for Testing PAR2 Compounds in ANTAGONIST Mode Using the Ca FLIPR^TETRA Assay (384 Well)
(§2) 23000 HT-29 cells (ATCC# HTB-38) were plated in 384-well black, transparent-flat bottom plates and incubated in 25 uL of 1% FBS/McCoy's media ON at 37° C. under an atmosphere of 5% CO2. The following day, 25 uL FLIPR calcium 5 Molecular Devices assay reagent (Cat: R-8186) was added. Plates were incubated at 37° C. and r. t. for 45 min and 15 min, respectively. Compounds dilutions were prepared in 100% DMSO using a Biomek FX and diluted 20-fold in HBSS and then 5.5 uL was added directly to the cells by the FLIPR^TETRA (10× dilution) using FLIPR Tetra Pipette tips, black, non-sterile, 384 Molecular Devices (Cat: 9000-0764).
(§3) A first read was performed to determine whether the test compounds on their own can activate Ca2+ responses.
(§4) The cells were incubated with the compounds for 30 min at r. t. and then read in ANTAGONIST mode in the same plate by stimulating with 6.2 uL of a fixed concentration of the activator: final concentrations: 8 μM SLIGKV, 1 U/mL Thrombin, 3.1 U/mL trypsin, or 0.6 μM UTP.

[2] = molecular target: T2, PAR2 (HT-29 cells, SLIGKV activation) (Homo sapiens, UniProt P55085); assay: Ca FLIPR TETRA assay, ANTAGONIST mode, stimulation with 8 μM SLIGKV; assay type: cell-based; conditions: for IC50: HT-29 cells
T2 construct: host or cells: HT-29 cells
T2 sequence (P55085 26-397): T1 sequence (P55085 26-397)
Protocol: as §1, §2, §3, §4

[3] = test system: UTP-stimulated Ca2+ response in HT-29 cells; assay: Ca FLIPR TETRA assay, ANTAGONIST mode, stimulation with 0.6 μM UTP; assay type: cell-based, human; conditions: Homo sapiens; HT-29 cells, stimulation with 0.6 μM UTP
Protocol: as §1, §2, §3, §4

[4] = test system: Thrombin-stimulated Ca2+ response in HT-29 cells; assay: Ca FLIPR TETRA assay, ANTAGONIST mode, stimulation with 1 U/mL Thrombin; assay type: cell-based, human; conditions: HT-29 cells, stimulation with 1 U/mL Thrombin
Protocol: as §1, §2, §3, §4

[5] = Table 6, HT-29 cells, 3.1 U/mL trypsin
[6] = Table 8, reported compounds of WO2005/030773, JP2003286171, JP2004170323
[7] = Table 8, reported compounds of WO2005/030773, JP2003286171, JP2004170323, HT-29 cells

N#Cc1cccnc1N1CCN(C(=O)c2cn3nc(-c4ccc(F)cc4)cc(C(F)(F)F)c3n2)CC1 [Compound I-582]
IC50 [1, 5]: > 50000 nM | IC50 ([2]; Table 6, 8 μM SLIGKV): 50000 nM

O=C(O)C1CCCCN(C(=O)c2cc3nc(-c4ccc(F)cc4)cc(C(F)(F)F)n3n2)C1 (centres unmarked) [Compound P-610, reference compound]
Trypsin % @ 50 μM ([1]; Table 8): 63% @ 50 μM | IC50 [2, 6]: 480 nM

O=C(c1cn2nc(-c3ccc(F)cc3)cc(C(F)(F)F)c2n1)N1CCCCCC1 [Compound I-7, Azepan-1-yl-[6-(4-fluorophenyl)-8-(trifluoromethyl)imidazo[1,2-b]pyridazine-2-yl]methanone]
IC50 [3]: > 50000 nM | IC50 ([2]; stimulation with 8 μM SLIGKV): 89 nM | IC50 ([4]; Homo sapiens): > 50000 nM

C[C@H]1CN(C(=O)c2cn3nc(-c4ccc(F)cc4)cc(C(F)(F)F)c3n2)CCN1C(=O)c1ncc[nH]1 [Compound I-88]
IC50 [3]: > 50000 nM | IC50 ([2]; stimulation with 8 μM SLIGKV): 680 nM | IC50 ([4]; Homo sapiens): > 50000 nM

CN(CCO)C(=O)c1cc2nc(-c3ccc(Cl)cc3)cc(C(F)(F)F)n2n1 [Compound P-597, reference compound]
IC50 [1, 7]: 27000 nM | IC50 [2, 6]: 17400 nM

O=C(c1cc2nc(-c3ccccc3)cc(C(F)(F)F)n2n1)N1CCCCC1 [Compound P-594, reference compound]
IC50 [1, 7]: 28000 nM | IC50 [2, 6]: 4670 nM

O=C(c1cc2nc(-c3ccccc3)cc(C(F)(F)F)n2n1)N1CCCCCC1 [Compound P-601, reference compound]
IC50 [1, 7]: 880 nM | IC50 [2, 6]: 61 nM

C[C@H]1CN(C(=O)c2cn3nc(-c4ccc(F)cc4)cc(C(F)(F)F)c3n2)CCN1C(=O)c1cc(-c2ccccc2)n[nH]1 [Compound I-87]
IC50 [3]: > 50000 nM | IC50 ([2]; stimulation with 8 μM SLIGKV): 21 nM | IC50 ([4]; Homo sapiens): > 50000 nM

CC(C)c1cc(-c2ccc(F)cc2)nn2cc(C(=O)N3CCNC(=O)C3)nc12 [Compound I-591]
IC50 [1, 5]: 41000 nM | IC50 ([2]; Table 6, 8 μM SLIGKV): 17000 nM

C[C@H]1CN(C(=O)c2cn3nc(-c4ccc(F)cc4)c(C(F)(F)F)cc3n2)CCN1C(=O)OCc1ccccc1 [Compound I-580]
Trypsin % @ 50 ([1]; Table 6, @ 50 (μM), HT-29 cells, 3.1 U/mL trypsin): 48% @ 50 | IC50 ([2]; Table 6, 8 μM SLIGKV): 23000 nM

CC1CCCCN1C(=O)c1cc2nc(-c3ccccc3)cc(C(F)(F)F)n2n1 (centres unmarked) [Compound P-595, reference compound]
IC50 [1, 7]: 19200 nM | IC50 [2, 6]: 1730 nM

O=C(c1cc2nc(-c3ccccc3)cc(C(F)(F)F)n2n1)N1CCC(O)CC1 [Compound P-609, reference compound]
IC50 [1, 7]: 14000 nM | IC50 [2, 6]: 2800 nM

O=C(c1nn2c(C(F)(F)F)cc(-c3ccccc3)nc2c1Br)N1CCC(c2ccc(F)cc2)C1 (centres unmarked) [Compound P-608, reference compound]
IC50 [1, 7]: 33000 nM | IC50 [2, 6]: 23000 nM

O=C(c1cc2nc(-c3ccc(Cl)cc3)cc(C(F)(F)F)n2n1)N1CCCCC1 [Compound P-593, reference compound]
IC50 [1, 7]: > 50000 nM | SLIGKV % @ 50 μM ([2]; Table 8, @ 50 μM, reported prior-art compounds): 67% @ 50 μM

CCC(=O)N1CCN(C(=O)c2cn3nc(-c4ccc(F)cc4)cc(C(F)(F)F)c3n2)CC1 [Compound I-584]
IC50 [1, 5]: 2000 nM | IC50 ([2]; Table 6, 8 μM SLIGKV): 22000 nM

CCOC(=O)C1CCCCN1C(=O)c1cc2nc(-c3ccc(Cl)cc3)cc(C(F)(F)F)n2n1 (centres unmarked) [Compound P-592, reference compound]
IC50 [1, 7]: 130 nM | IC50 [2, 6]: 57 nM

CC(C)c1cc(-c2ccc(F)cc2)nn2cc(C(=O)N3CCCCC34COC4)nc12 [Compound I-587]
IC50 [1, 5]: 19000 nM | IC50 ([2]; Table 6, 8 μM SLIGKV): 25000 nM

O=C(O)C1CCCCN(C(=O)c2cc3nc(-c4ccc(Cl)cc4)cc(C(F)(F)F)n3n2)C1 (centres unmarked) [Compound P-611, reference compound]
IC50 [1, 7]: 1250 nM | IC50 [2, 6]: 110 nM

CCOC(=O)C1CCN(C(=O)c2cc3nc(-c4ccc(Cl)cc4)cc(C(F)(F)F)n3n2)CC1 [Compound P-605, reference compound]
Trypsin % @ 50 μM ([1]; Table 8): 50% @ 50 μM | IC50 [2, 6]: 73 nM

O=C(c1cn2nc(-c3ccc(F)cc3)cc(C(F)(F)F)c2n1)N1CCCCC1c1nccs1 (centres unmarked) [Compound I-73]
IC50 ([1]; HT-29 cells, stimulation with 3.1 U/mL trypsin): 920 nM | IC50 ([2]; stimulation with 8 μM SLIGKV): 740 nM | IC50 ([4]; Homo sapiens): 1700 nM

COC(=O)C1CC(C(=O)N2CCN(C(=O)c3cn4nc(-c5ccc(F)cc5)cc(C(C)(C)C)c4n3)C(C)(C)C2)C1 (centres unmarked) [Compound I-538]
IC50 ([1]; HT-29 cells, antagonist mode, stimulation with 3.1 U/mL trypsin): 0.9 nM | IC50 ([2]; antagonist mode, stimulation with 8 μM SLIGKV): 0.8 nM | IC50 ([4]; antagonist mode): > 1000 nM

From patent publication US20190119282A1, “IMIDAZOPYRIDAZINES USEFUL AS INHIBITORS OF THE PAR-2 SIGNALING PATHWAY” (Vertex Pharmaceuticals Incorporated, priority 2013, published 2019)
